Data: patent publication US9228224B2, “Method for assaying OGFOD1 activity” (ISIS INNOVATION LIMITED, priority 2011, dated 2016)

Tests used:
OGFOD1 (hsOGFOD1_FL) = target: T1, OGFOD1 (hsOGFOD1_FL) (Homo sapiens, UniProt Q8N543); test: Thermal stability shift assay (SYPRO Orange); format: binding; conditions: change in apparent protein melting temperature; compound 20 μM, 1 μM hsOGFOD1_FL, 50 μM MnCl2
T1 construct: His6 tag (N-terminal pET-28a leader); made in house; host or cells: E. coli BL21(DE3)
T1 sequence (Q8N543 1-542): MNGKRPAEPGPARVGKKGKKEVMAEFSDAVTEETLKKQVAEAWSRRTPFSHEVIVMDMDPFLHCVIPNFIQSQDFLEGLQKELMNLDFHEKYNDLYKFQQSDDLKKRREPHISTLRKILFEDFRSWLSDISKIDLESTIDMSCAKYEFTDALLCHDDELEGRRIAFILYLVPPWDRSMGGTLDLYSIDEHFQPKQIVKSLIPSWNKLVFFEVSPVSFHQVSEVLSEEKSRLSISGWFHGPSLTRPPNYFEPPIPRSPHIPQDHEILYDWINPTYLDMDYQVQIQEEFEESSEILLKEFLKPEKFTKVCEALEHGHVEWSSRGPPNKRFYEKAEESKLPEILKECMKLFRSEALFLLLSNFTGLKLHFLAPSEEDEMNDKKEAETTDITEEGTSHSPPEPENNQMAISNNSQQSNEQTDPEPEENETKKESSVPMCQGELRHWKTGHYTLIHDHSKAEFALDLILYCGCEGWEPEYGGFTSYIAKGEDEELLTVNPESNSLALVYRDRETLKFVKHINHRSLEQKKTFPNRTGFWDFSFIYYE
Description: Assays were conducted in 50 mM HEPES buffer, 150 mM NaCl, pH 7.5. A stock solution of MnCl2 (500 mM) in 20 mM HCl was prepared, and diluted to 5 mM with water. A master mix containing 2.085 mL buffer, 21 μL MnCl2 (5 mM, 50 μM final), 21 μL hsOGFOD1_FL (100 μM, 1 μM final), and 2.1 μL SYPRO Orange dye was prepared. The screen was conducted using stock solutions of compounds (400 μIM in DMSO) at a final concentration of 20 μM, by mixing 1 μL compound stock solution with 19 μL assay master mix. Incubations were performed in a white 96-well RT-PCR plate and subjected to thermal cycling as per an established protocol. Data was analysed in Microsoft Excel and GraphPad Prism.
The effect of small molecules on the stability of proteins to thermal denaturation was assessed by the change in apparent protein melting temperature, defined as the temperature at which equal amounts of folded and unfolded protein exist in solution. Unfolding was quantified by measurement of the fluorescence increase of SYPRO® Orange dye (Invitrogen) upon binding to hydrophobic residues that are exposed during unfolding. Approximately 400 small-molecule compounds were tested at a final concentration of 20 μM. Stabilization data for selected compounds are shown in below. Structures of the compounds are set out below.

OGFOD1 [1] = target: T2, OGFOD1 (Homo sapiens, UniProt Q8N543); test: MALDI-based hydroxylation assay, inhibitor screen; format: biochemical; conditions: general statement in the description, no conditions given
T2 construct: His6 tag (N-terminal pET-28a leader); made in house; host or cells: E. coli BL21(DE3)
T2 sequence (Q8N543 1-542): T1 sequence (Q8N543 1-542)
Description: A library of 150 compounds comprising known and potential inhibitors of 2OG oxygenases was screened against OGFOD1 by a MALDI-based hydroxylation assay. Single-point measurements were conducted in duplicate, using 4 μM OGFOD1 at 100 μM final compound concentration in the presence of excess (300 μM) 2OG, with incubation at 37° C. for 30 min.

OGFOD1 [2] = target: T2, OGFOD1; test: MALDI assay of OGFOD1 specificity towards RPS23 and RPS23-like peptides; format: biochemical; conditions: peptide as substrate; 4 μM OGFOD1/100 μM peptide, 37° C., 30 min; symbols not defined
Description: To investigate the specificity of OGFOD1 towards variations in the sequence and length, multiple corresponding to RPS23 and RPS23-like sequences were synthesized and tested. MALDI assays were performed using a 1:25 protein:peptide (4 μM/100 μM) ratio, with incubation at 37° C. for 30 min.
Mutation of prolyl to alanine or isoleucine residues completely abolished hydroxylation, providing further evidence for OGFOD1 acting as a prolyl hydroxylase. […] This observation is consistent with the high evolutionary conservation of the amino acids following, but not of those preceding the prolyl (Pro-62) residue in RPS23.

OGFOD1 [3] = target: T2, OGFOD1; test: OGFOD1-mediated hydroxylation of RPS23 20mer peptide with generic 2OG oxygenase inhibitors; format: biochemical; conditions: 1 mM inhibitor
Description: OGFOD1-mediated hydroxylation of the initially identified 20mer peptide sequence of human RPS23 was strictly dependent on presence of 2OG and Fe(II), and hydroxylation was reduced in presence of 1 mM of generic 2OG oxygenase inhibitors such as N-oxalyl glycine (NOG), pyridine 2,4-dicarboxylic acid (2,4-PDCA) and transition metal ions such as Co^II.

full-length OGFOD1 = target: T3, full-length OGFOD1 (Homo sapiens, UniProt Q8N543); test: 2OG turnover assay; format: biochemical; conditions: 1 mM inhibitor, 37° C., 20 min
T3 construct: His6 tag (N-terminal pET-28a leader); made in house; host or cells: E. coli BL21(DE3)
T3 sequence (Q8N543 1-542): T1 sequence (Q8N543 1-542)
Description: Values shown are averages of two or three experiments. Error bars represent standard deviations. The assay was carried out for 20 min at 37° C. using 8 μM recombinant full-length human OGFOD1 (SEQ ID NO:1), 288 μM 2OG, 3.7 μM 1-[^14C]-2OG (specific activity […], stock concentration 1.83 mM), RPS23 peptide, 100 μM (NH4)2Fe(SO4)2, 4 mM ascorbate, 0.66 mg/ml catalase, 1 mM DTT, 50 mM Tris.HCl pH 7.5, and with one of OGFOD1, (NH4)2Fe(SO4)2 and ascorbate missing from the assay. The assay was also performed in the presence of 1 mM pyridine 2,4-dicarboxylic acid (2,4-PDCA).
Constructs of OGFOD1 encoding full-length protein or its C-terminal domain were tested for enzymatic activity using a 2OG turnover assay (Kivirikko and Myllyla (1982) Methods in Enzymology 82: […]). […]
These were diluted to a total volume of 100 μl with 50 mM Tris-Cl buffer, pH 7.5. […] The Eppendorf tubes containing the hyamine hydroxide were transferred to scintillation vials, mixed with 5 mL OptiPhase Liquid Scintillation Cocktail (Fisher Scientific) and total ^14C counts quantified using a Beckman LS6500 Multi-Purpose Scintillation Counter. Conversion of 2OG was calculated from the percentage of 1-[^14C]-2OG that had been converted into gaseous ^14CO2. […]

Molecule	Stabilization (° C.) (OGFOD1 (hsOGFOD1_FL))	other results
O=C(O)CCC(=O)Nc1cc2ccccc2cn1 [Compound 1]	+8.4 °C	
O=C(O)CCC(=O)Nc1ccc(Br)cn1 [Compound 6]	+7.0 °C	
O=C(O)c1cc(O)c(O)c(O)c1 [gallic acid]		inhibition of OGFOD1 prolyl hydroxylase activity (OGFOD1 [1]): inhibitory
CCC(=O)C1C(=O)CC(C(=O)O)CC1=O (centres unmarked) [Compound 8, Prohexadione]	+6.9 °C	
O=C(O)CCC(=O)NNS(=O)(=O)c1ccccc1 [Compound 3]	+7.1 °C	
O=C(O)c1ccnc(-c2cc(C(=O)O)ccn2)c1 [Compound 5]	+7.5 °C	
N#Cc1ccc2c(=O)c(C(=O)O)c[nH]c2c1 [Compound 7]	+7.5 °C	
O=C(O)CNC(=O)c1nc(Cl)c2ccccc2c1O [Compound 4, 2-(1-Chloro-4-hydroxyisoquinoline-3-carboxamido)acetic acid]	+7.0 °C	inhibition of OGFOD1 prolyl hydroxylase activity (OGFOD1 [1]): inhibit OGFOD1; inhibition of OGFOD1 prolyl hydroxylase activity (OGFOD1 [1]; listed as FG2216): inhibitory
O=C(O)CCC(=O)NNC(=O)c1ccc2ccccc2c1 [Compound 2]	+7.1 °C	
O=C(O)CCNC(=O)c1nc2ccccc2cc1O [Compound 10]	+7.2 °C	
CC(NC(=O)C(=O)O)C(=O)O (centres unmarked) [Compound 9]	+6.3 °C	
CODD: PHD2 C-terminal oxygen-dependent degradation domain (CODD) substrate of HIF-1α		Hydroxylation (OGFOD1 [2]): No hydroxylation
O=C(O)CNC(=O)C(=O)O [N-oxalylglycine]		inhibition of OGFOD1 prolyl hydroxylase activity (OGFOD1 [1]): inhibitory; hydroxylation of RPS23 20mer peptide (OGFOD1 [3]): reduced
O=C(O)c1ccnc(C(=O)O)c1 [Compound 11, Pyridine 2,4-dicarboxylic acid]	+6.7 °C	inhibition of OGFOD1 prolyl hydroxylase activity (OGFOD1 [1]): inhibitory; OGFOD1-catalyzed 2OG turnover (full-length OGFOD1): inhibited; hydroxylation of RPS23 20mer peptide (OGFOD1 [3]): reduced
